Calls of active or inactive are those of the source. The rule behind the calls is not given here.
Tests used:
[1] = tested on: Mus musculus; test: Evaluated for improvement of anoxic amnesia in mice after ip administration of 10 mg/kg dose(218 delay seconds); -19-248; assay type: functional; settings: route intraperitoneal
[2] = tested on: Mus musculus; test: Evaluated for improvement of anoxic amnesia in mice after ip administration of 25 mg/kg dose(341 delay seconds); 79-131; assay type: functional; settings: route intraperitoneal
[3] = tested on: Rattus norvegicus; test: Evaluated for improvement of anoxic amnesia in aged rat after ip administration of 25 mg/kg (300 delay seconds); assay type: functional; settings: route intraperitoneal
[4] = tested on: Mus musculus; test: Evaluated for improvement of anoxic amnesia in mice after ip administration of 100 mg/kg dose; assay type: functional; settings: route intraperitoneal
[5] = tested on: Rattus norvegicus; test: Evaluated for improvement of anoxic amnesia in aged rat after ip administration of 10 mg/kg dose(529 delay seconds); assay type: functional; settings: route intraperitoneal
[6] = tested on: Mus musculus; test: The compound was evaluated for hypoxic survival activity in mice after intraperitoneal administration at 100 mg/kg dose; 75-80; assay type: functional; settings: ip
[7] = tested on: Mus musculus; test: The compound was evaluated for hypoxic survival activity in mice after intraperitoneal administration at 0.125 mg/kg dose; 60-80; assay type: functional; settings: ip
[8] = tested on: Mus musculus; test: The compound was evaluated for hypoxic survival activity in mice after intraperitoneal administration at 100 mg/kg dose; 50-90; assay type: functional; settings: ip
[9] = tested on: Mus musculus; test: Evaluated for improvement of anoxic amnesia in mice after ip administration of 50 mg/kg dose; assay type: functional; settings: route intraperitoneal
[10] = tested on: Mus musculus; test: The compound was evaluated for hypoxic survival activity in mice after intraperitoneal administration at 100 mg/kg dose; 45-65; assay type: functional; settings: ip
[11] = tested on: Mus musculus; test: The compound was evaluated for hypoxic survival activity in mice after intraperitoneal administration at 10 mg/kg dose; 30-80; assay type: functional; settings: ip
[12] = tested on: Mus musculus; test: The compound was evaluated for hypoxic survival activity in mice after intraperitoneal administration at 100 mg/kg dose; 50-95; assay type: functional; settings: ip
[13] = tested on: Mus musculus; test: The compound was evaluated for hypoxic survival activity in mice after intraperitoneal administration at 10-100 mg/kg dose; Inactive; assay type: functional, organism-based
[14] = tested on: Mus musculus; test: The compound was evaluated for hypoxic survival activity in mice after intraperitoneal administration at 10 mg/kg dose; 50-75; assay type: functional; settings: ip
[15] = tested on: Mus musculus; test: The compound was evaluated for hypoxic survival activity in mice after intraperitoneal administration at 100 mg/kg dose; 80-85; assay type: functional; settings: ip
[16] = tested on: Mus musculus; test: The compound was evaluated for hypoxic survival activity in mice after intraperitoneal administration at 100 mg/kg dose; assay type: functional; settings: ip
[17] = tested on: Mus musculus; test: The compound was evaluated for hypoxic survival activity in mice after intraperitoneal administration at 100 mg/kg dose; 65-80; assay type: functional; settings: ip
[18] = tested on: Mus musculus; test: The compound was evaluated for hypoxic survival activity in mice after intraperitoneal administration at 100 mg/kg dose; 55-55; assay type: functional; settings: ip
[19] = tested on: Mus musculus; test: The compound was evaluated for hypoxic survival activity in mice after intraperitoneal administration at 50 mg/kg dose; 80-90; assay type: functional; settings: ip

Question: How did the Improvement [1] turn out when `Cn1c(NC(=O)c2ccccc2)nc2ccccc2c1=O` was run?
Answer: 94%

Question: What about the Improvement [2] of the same compound?
Answer: 105%

Question: What about the Improvement [3] of the same compound?
Answer: 733%

Question: And the Improvement [4]?
Answer: 78%

Question: What about the Improvement [5] of the same compound?
Answer: 1369%

Question: What about the survival at 100 mg/kg [6] of the same compound?
Answer: 78%

Question: `CNC(=O)Oc1ccc2c(c1)[C@]1(C)CCN(C)[C@@H]1N2C` [PHYSOSTIGMINE] was tested. Which survival at 0.125 mg/kg [7] did it give?
Answer: 60%

Question: Which survival at 100 mg/kg [8] does the source give for `COc1cc2nc(NC(=O)c3ccccc3)nc(O)c2cc1OC` here?
Answer: 70%

Question: Which results are given for `Cc1ccc(C(=O)Nc2nc(=O)c3ccccc3n2C)cc1`?
Answer: Improvement [9]: 224%; survival at 100 mg/kg [10]: 55%

Question: Which survival at 10 mg/kg [11] does the source give for `O=C(Nc1nc(O)c2ccccc2n1)c1ccc(Cl)cc1` here?
Answer: 55%

Question: How did the survival at 100 mg/kg [12] turn out when `Cn1c(NC(=O)c2ccccc2)nc(=O)c2ccccc21` was run?
Answer: 70%

Question: How did the Survival [13] turn out when `Cc1cccc(C(=O)Nc2nc(=O)c3ccccc3n2C)c1` was run?
Answer: inactive

Question: For `COc1ccc(C(=O)Nc2nc(O)c3ccccc3n2)cc1`, which survival at 10 mg/kg [14] is on record?
Answer: 63%

Question: How did the survival at 100 mg/kg [15] turn out when `Cc1cccc(C(=O)Nc2nc(O)c3ccccc3n2)c1` was run?
Answer: 83%

Question: For `Cc1ccc(C(=O)Nc2nc(O)c3ccccc3n2)cc1`, which survival at 10 mg/kg [14] is on record?
Answer: 63%

Question: How did the survival at 100 mg/kg [16] turn out when `CC(C)n1c(NC(=O)c2ccccc2)nc2ccccc2c1=O` was run?
Answer: 55%

Question: How did the Improvement [9] turn out when `O=C(Nc1nc(O)c2ccccc2n1)c1ccccc1` was run?
Answer: 130%

Question: And the survival at 100 mg/kg [17]?
Answer: 73%

Question: For `Cc1ccc2nc(NC(=O)c3ccccc3)nc(O)c2c1`, which survival at 100 mg/kg [18] is on record?
Answer: 55%

Question: What does the source list for `Cc1ccc(C(=O)Nc2nc3ccccc3c(=O)n2C)cc1`?
Answer: survival at 50 mg/kg [19]: 85%; Improvement [9]: 116%
